Experimental data from article PMC6271988, “New Potentially Active Pyrazinamide Derivatives Synthesized Under Microwave Conditions” (Molecules, 2014).
Values after ≈ are worked out from the molar mass of the structure shown. Where two headings read alike, the source gives them in different places.

How the values were obtained:
[1] = system: Aspergillus fumigatus 231; assay: Antifungal evaluation, microdilution broth method; type: cell-based; settings: AF
Procedure: (§1) Antifungal evaluation was also accomplished with microdilution broth method. On the contrary, there was used RPMI 1640 broth with glutamine as medium and conditions were humid and dark atmosphere, pH 7.0 (adjusted with 0.165 M morpholinepropanesulfonic acid, MOPS) and 35 °C. 8 fungal strains were used (Candida albicans ATCC 44859, Candida tropicalis 156, Candida krusei E28, Candida glabrata 20/I, Trichosporon asahii 1188, Aspergillus fumigatus 231, Lichtheimia corymbifera 272, Trichophyton mentagrophytes 445) together with four antimycotic standards amphotericin B, voriconazole, nystatin and fluconazole.

[2] = system: Candida albicans ATCC 44859; assay: Antifungal evaluation, microdilution broth method; type: cell-based; settings: CA
Procedure: as §1

Candida glabrata 20/I = assay: Antifungal evaluation, microdilution broth method; type: cell-based; settings: CG
Procedure: as §1

Candida krusei E28 = assay: Antifungal evaluation, microdilution broth method; type: cell-based; settings: CK
Procedure: as §1

Candida tropicalis 156 = assay: Antifungal evaluation, microdilution broth method; type: cell-based; settings: CT
Procedure: as §1

[3] = system: Lichtheimia corymbifera 272; assay: Antifungal evaluation, microdilution broth method; type: cell-based; settings: LC
Procedure: as §1

[4] = system: Trichophyton mentagrophytes 445; assay: Antifungal evaluation, microdilution broth method; type: cell-based; settings: TM
Procedure: as §1

Trichosporon asahii 1188 = assay: Antifungal evaluation, microdilution broth method; type: cell-based; settings: TA
Procedure: as §1

[5] = Lipophilicity HPLC determination (logk); type: physicochemical; settings: HPLC capacity factor, C18, MeOH 70%/H2O 30%, 30 °C
[6] = system: PET in spinach chloroplasts; assay: Photosynthetic electron transport (PET) inhibition, DCPIP photoreduction; type: biochemical, Spinacia oleracea L.; settings: DCPIP photoreduction
Procedure: The inhibition of photosynthetic electron transport (PET) in spinach chloroplasts was determined spectrophotometrically (Genesys 6, Thermo Scientific, Madison, WI, USA) using an artificial electron acceptor 2,6-dichlorophenol-indophenol (DCPIP). The rate of photosynthetic electron transport was monitored as a photoreduction of DCPIP. Chloroplasts were prepared from Spinacia oleracea L.. The measurements were carried out in phosphate buffer (0.02 mol/L, pH 7.2) containing sucrose (0.4 mol/L), MgCl2 (0.005 mol/L) and NaCl (0.015 mol/L). The chlorophyll concentration was 30 mg/L and the samples were irradiated (~100 W/m^2 with 10 cm distance) with a halogen lamp (250 W). […] The studied compound were dissolved in DMSO due to their limited water solubility. […] The efficiency of studied compounds was expressed as 50% inhibition concentration relative to the untreated control. The standard for these measurements was DCMU (Diurone®).

[7] = system: spectrum of fungi tested (8 fungal strains); assay: Antifungal evaluation, summary over the fungi tested; type: cell-based
Procedure: as §1

[8] = system: Staphylococcus epidermidis; assay: Antibacterial in vitro screening, microdilution broth method; type: cell-based; settings: 80% inhibition of control
[9] = system: aromatic amino acids of photosynthetic proteins in spinach chloroplasts; assay: Fluorescence emission spectra of aromatic amino acids in chloroplast suspension; set-up: species or system Spinacia oleracea L.; settings: c = 0, 6, 24 and 48 μmol/L; excitation 275 nm; chlorophyll 10 mg/L
Procedure: The emission fluorescence spectra of aromatic amino acids were recorded on the fluorescence spectrophotometer F-2000 (Hitachi, Tokyo, Japan). The samples of chloroplast suspensions with and without studied inhibitor were excited at wavelength of 275 nm, excitation slit 20 nm and emission slit 10 nm. The samples were kept in the dark for 2 min prior to the measurement. The phosphate buffer used for dilution of the chloroplast suspension was the same as described above. The compounds were added to chloroplast suspension in DMSO solution due to low aqueous solubility. The DMSO concentration in all samples was the same as in the control (10%). The chlorophyll concentration in chloroplast suspension was 10 mg/L.

[10] = system: Mycobacterium tuberculosis H37Rv; assay: Antimycobacterial in vitro screening, microdilution broth panel method, Alamar Blue; type: cell-based; settings: 336 h, M. tuberculosis H37Rv, Middlebrook 7H9, 14 days of incubation
[11] = Aspergillus fumigatus, 231, 24 h
[12] = Aspergillus fumigatus, 231, 48 h
[13] = Candida albicans, ATCC44859, 24 h
[14] = Candida albicans, ATCC44859, 48 h
[15] = Nakaseomyces glabratus, 20/I, 24 h
[16] = Nakaseomyces glabratus, 20/I, 48 h
[17] = Lichtheimia corymbifera, 272, 24 h
[18] = Lichtheimia corymbifera, 272, 48 h
[19] = Trichophyton mentagrophytes, 445, 72 h
[20] = Trichophyton mentagrophytes, 445, 120 h
[21] = Trichosporon asahii, 1188, 24 h
[22] = Trichosporon asahii, 1188, 48 h
[23] = fungi tested, less active than the standards, read-out: IC80 antifungal
[24] = nearly a whole spectrum of fungi tested, after 24 h of incubation, read-out: 80% inhibition of control (IC80), range over fungi

Row | Structure (SMILES) | IC80 [1, 11] [µM] | IC80 [1, 12] [µM] | IC80 [2, 13] [µM] | IC80 [2, 14] [µM] | IC80 (Candida glabrata 20/I; [15]) [µM] | IC80 (Candida glabrata 20/I; [16]) [µM] | IC80 (Candida krusei E28; Pichia kudriavzevii, E28, 24 h) [µM] | IC80 (Candida krusei E28; Pichia kudriavzevii, E28, 48 h) [µM] | IC80 (Candida tropicalis 156; Candida tropicalis, 156, 24 h) [µM] | IC80 (Candida tropicalis 156; Candida tropicalis, 156, 48 h) [µM] | IC80 [3, 17] [µM] | IC80 [3, 18] [µM] | IC80 [4, 19] [µM] | IC80 [4, 20] [µM] | IC80 (Trichosporon asahii 1188; [21]) [µM] | IC80 (Trichosporon asahii 1188; [22]) [µM] | logk [5] | IC50 [6] [µM] | IC80 [7, 23] [µM] | also measured
1 | C[C@@H]1[C@H](O)[C@@H](C)/C=C/C=C/C=C/C=C/C=C/C=C/C=C/[C@H](O[C@@H]2O[C@H](C)[C@@H](O)[C@H](N)[C@@H]2O)C[C@@H]2O[C@](O)(C[C@@H](O)C[C@@H](O)[C@H](O)CC[C@@H](O)C[C@@H](O)CC(=O)O[C@H]1C)C[C@H](O)[C@H]2C(=O)O [AMP, amphotericin B] | 1.95 | 1.95 | 0.12 | 0.49 | 0.98 | 1.95 | 1.95 | 1.95 | 1.95 | 1.95 | 7.81 | 7.81 | 1.95 | 1.95 | 0.49 | 0.98 |  |  |  | 
2 | CCCCNc1nccnc1C(N)=O [Compound 4, 3-(Butylamino)pyrazine-2-carboxamide] |  |  |  |  |  |  |  |  |  |  |  |  |  |  |  |  | 0.2287 | 203 | ≥ 250 | 
3 | CCCCCNc1nccnc1C(N)=O [Compound 5, 3-(Pentylamino)pyrazine-2-carboxamide] |  |  |  |  |  |  |  |  |  |  |  |  |  |  |  |  | 0.4563 | 38.6 | ≥ 250 | IC80 [8]: < 250 µM
4 | CCCCCCNc1nccnc1C(N)=O [Compound 7, 3-(Hexylamino)pyrazine-2-carboxamide] |  |  |  |  |  |  |  |  |  |  |  |  |  |  |  |  | 0.6860 | 32.9 | ≥ 250 | IC80 [8]: < 250 µM; Quenching of aromatic amino acid fluorescence at 334 nm [9]: increased with increasing concentration
5 | CCCCCCCNc1nccnc1C(N)=O [Compound 8, 3-(Heptylamino)pyrazine-2-carboxamide] |  |  |  |  |  |  |  |  |  |  |  |  |  |  |  |  | 0.9198 |  | ≥ 250 | 
6 | NC(=O)c1nccnc1NC1CCCC1 [Compound 11, 3-(Cyclopentylamino)pyrazine-2-carboxamide] | 500 | > 500 | 500 | > 500 | 250 | > 500 | 250 | 500 | > 500 | > 500 | > 500 | > 500 | 500 | 500 | 500 | > 500 | 0.2537 | 25.8 | ≥ 250 | 
7 | NC(=O)c1nccnc1NC1CCCCC1 [Compound 12, 3-(Cyclohexylamino)pyrazine-2-carboxamide] | 15.6 | 62.5 | 31.2 | 62.5 | 15.6 | 31.2 | 15.6 | 62.5 | 125 | 500 | 250 | 500 | 15.6 | 15.6 | 31.2 | 250 | 0.4523 | 83 |  | IC80 [7, 24]: 15.6 to 31.2 µM
8 | NC(=O)c1nccnc1NC1CCCCCC1 [Compound 13, 3-(Cycloheptylamino)pyrazine-2-carboxamide] | 7.81 | 7.81 | 15.6 | 31.2 | 7.81 | 15.6 | 7.81 | 31.2 | 62.5 | 500 | 62.5 | 250 | 15.6 | 15.6 | 31.2 | 125 | 0.6575 | 19.3 |  | IC80 [8]: < 250 µM; IC80 [7, 24]: 7.81 to 31.2 µM
9 | OC(Cn1cncn1)(Cn1cncn1)c1ccc(F)cc1F [FLU, fluconazole] | > 500 | > 500 | 0.24 | 0.24 | 31.2 | 250 | 125 | 250 | > 500 | > 500 | > 500 | > 500 | 7.81 | 125 | 250 | 500 |  |  |  | 
10 | C[C@@H]1[C@H](O)[C@@H](C)/C=C/C=C/CC/C=C/C=C/C=C/C=C/C(O[C@H]2O[C@H](C)[C@@H](O)[C@H](N)[C@@H]2O)CC2O[C@](O)(CC(O)C(O)CCC(O)CC(O)CC(O)CC(=O)O[C@H]1C)CC(O)C2C(=O)O (stereo partly drawn) [NYS, nystatin] |  |  |  |  |  |  |  |  |  |  |  |  |  |  |  |  |  |  |  | IC80 ([1]; 24 h): 1.95 µM; IC80 ([1]; 48 h): 3.9 µM; IC80 ([2]; 24 h): 0.98 µM; IC80 ([2]; 48 h): 1.95 µM; IC80 (Candida glabrata 20/I; 24 h): 1.95 µM; IC80 (Candida glabrata 20/I; 48 h): 3.9 µM; IC80 (Candida krusei E28; 24 h): 1.95 µM; IC80 (Candida krusei E28; 48 h): 3.9 µM; IC80 (Candida tropicalis 156; 24 h): 1.95 µM; IC80 (Candida tropicalis 156; 48 h): 3.9 µM; IC80 ([3]; 24 h): 15.6 µM; IC80 ([3]; 48 h): 31.2 µM; IC80 ([4]; 72 h): 3.9 µM; IC80 ([4]; 120 h): 7.81 µM; IC80 (Trichosporon asahii 1188; 24 h): 1.95 µM; IC80 (Trichosporon asahii 1188; 48 h): 1.95 µM
11 | C[C@@H](c1ncncc1F)[C@](O)(Cn1cncn1)c1ccc(F)cc1F [VOR, voriconazole] | 0.49 | 0.98 | 0.008 | 0.008 | 250 | 250 | 0.98 | 1.95 | 250 | 250 | 250 | 250 | 0.06 | 0.12 | 7.81 | 31.2 |  |  |  | 
12 | NNC(=O)c1ccncc1 [isoniazid] |  |  |  |  |  |  |  |  |  |  |  |  |  |  |  |  |  |  |  | MIC [10]: 0.39 µg/mL (≈ 2.84 µM)
13 | NC(=O)c1cnccn1 [pyrazinamide] |  |  |  |  |  |  |  |  |  |  |  |  |  |  |  |  |  |  |  | MIC [10]: 12.5 µg/mL (≈ 102 µM)
